These results are taken from patent US7737155B2, “Nitrogen-containing heterocyclic compounds and methods of use thereof” (Schering Corporation, priority 2005, dated 2010).

A value given as a limit tells only on which side of the number the result lay.

For the first experiment, the target named is recombinant human nicotinic acid receptor (NAR) (Homo sapiens, UniProt Q8TDS4). Put plainly: Nicotinic Acid Receptor Assay: inhibition of forskolin-stimulated cAMP accumulation in CHO cells (MesoScale Discovery cAMP kit). Format: cell-based. To be noted: CHO cells expressing recombinant human NAR; forskolin-stimulated cAMP; read-out: NA EC50 camp. Put shortly: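 Compounds were diluted in PBS containing 6 μM forskolin and incubated with cells for 30 min at room temperature. cAMP was quantified by the MesoScale kit against an on-plate standard curve.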
Sequence of recombinant human nicotinic acid receptor (NAR) (Q8TDS4 whole entry): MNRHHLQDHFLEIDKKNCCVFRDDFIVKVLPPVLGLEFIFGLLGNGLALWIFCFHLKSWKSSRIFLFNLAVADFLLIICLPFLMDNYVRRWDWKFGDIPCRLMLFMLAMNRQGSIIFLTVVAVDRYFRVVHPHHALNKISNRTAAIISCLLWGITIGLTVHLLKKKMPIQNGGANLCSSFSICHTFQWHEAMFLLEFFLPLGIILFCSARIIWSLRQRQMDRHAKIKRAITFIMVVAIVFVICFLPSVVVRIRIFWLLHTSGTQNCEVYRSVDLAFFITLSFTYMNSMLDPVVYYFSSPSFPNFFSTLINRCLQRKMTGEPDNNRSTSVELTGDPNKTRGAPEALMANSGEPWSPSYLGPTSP
Regarding `O=c1[nH]c(=O)c2c(CC3CCNC3)cc(=O)oc2[nH]1` (centres unmarked) [Compound 244], the EC50 is over 1000 nM.
As for `CCc1cc(=O)oc2nc(OCc3ccccc3-c3cccc(C)c3)[nH]c(=O)c12` [Compound 550], the EC50 was over 1000 nM.
The same measure, in the same setting: to `O=c1[nH]c(=O)c2c(CCCOC3CCCCC3)cc(=O)oc2[nH]1` [Compound 287] belongs over 1000 nM; to `CCOc1nc2oc(=O)cc(CCC3CCCC3)c2c(=O)[nH]1` [Compound 687], 100 to 1000 nM; to `O=c1[nH]c(=O)c2c(CCC#Cc3ccccc3)cc(=O)oc2[nH]1` [Compound 220], over 1000 nM.
Same read-out and setting: to `CC1(CCc2cc(=O)oc3[nH]c(=O)[nH]c(=O)c23)CC1` [Compound 272] belongs 100 to 1000 nM; to `CC/C=C\CCc1cc(=O)oc2c1c(=O)[nH]c(=O)n2CC1CC1` [Compound 253], over 1000 nM; to `CCc1noc(C)c1COc1nc2oc(=O)cc(CC)c2c(=O)[nH]1` [Compound 666], 0.001 to 100 nM.
On to `O=c1[nH]c(=O)c2c(CC3CCC(F)(F)CC3)cc(=O)oc2[nH]1` [Compound 223], for which the EC50 was in the range of 0.001 to 100 nM.
In the case of `CCn1c(=O)[nH]c(=O)c2c(C)cc(=O)oc21` [Compound 291], the EC50 was over 1000 nM.
Same read-out and setting: to `CCCCc1cc(=O)oc2nc(OCC#CC(O)CC)[nH]c(=O)c12` (centres unmarked) [Compound 679] belongs 0.001 to 100 nM.
Same read-out and setting: the value for `CCc1cc(=O)oc2nc(OC3CCSCC3)[nH]c(=O)c12` [Compound 605] was over 1000 nM.
The same measure, in the same setting: to `Cc1cc(=O)oc2nc(OCc3csc4ccccc34)[nH]c(=O)c12` [Compound 690] belongs over 1000 nM.
`CCc1cc(=O)oc2nc(OCc3ccccc3-n3ccnc3)[nH]c(=O)c12` [Compound 570]: the EC50 fell in the range of 100 to 1000 nM.
`O=c1cc(CCCc2cccs2)c2c(=O)n(CC3CC3)c(=O)[nH]c2o1` [Compound 256]: the 50% effective concentration (EC50) was over 1000 nM.
In the case of `CCc1cc(=O)oc2nc(OCc3ccc(-c4ccccc4)cc3F)[nH]c(=O)c12` [Compound 518], the EC50 lay within 100 to 1000 nM.
Same read-out and setting: to `CCc1cc(=O)oc2nc(OCc3cccc(-n4cccc4)c3)[nH]c(=O)c12` [Compound 612] belongs over 1000 nM.

Staying with this experiment, now noted: NA EC50 camp (nM), CHO cells expressing recombinant human NAR; forskolin-stimulated cAMP.
With `CCc1cc(=O)oc2nc(OCC#CCCO)[nH]c(=O)c12` [Compound 658], the EC50 was in the range of 100 to 1000 nM.

Still in this experiment, the particulars now being: NA EC50 camp, inhibition of forskolin-stimulated cAMP accumulation, CHO cells expressing recombinant human NAR.
On to `O=c1cc(CCC2CCC2)c2c(=O)[nH]c(C(F)F)nc2o1` [Compound 748], for which the EC50 was 286 nM.
The same measure, in the same setting: the value for `CCCCc1cc(=O)oc2nc(C(F)F)[nH]c(=O)c12` [Compound 750] was 1890 nM.

Staying with this experiment, now noted: inhibition of forskolin-stimulated cAMP accumulation, CHO cells expressing recombinant human NAR; read-out: NA EC50 camp.
Consider `O=c1cc(CCC2CCC2)c2c(=O)[nH]c(CF)nc2o1` [Compound 749], for which the EC50 was 182 nM.
Regarding `CCCCCCc1cc(=O)oc2[nH]c(=O)nc(OCF)c12` [Compound 833], the EC50 was 511 nM.
As to `O=c1cc(CCCC2CC2)c2c(=O)n(C3CCC3)c(=O)[nH]c2o1` [Compound 784], the EC50 was 17.9 nM.
Same read-out and setting: to `O=c1[nH]c(=O)c2c(CC3CC3)cc(=O)oc2[nH]1` [Compound 117] belongs 155 nM; to `O=c1[nH]c(=O)c2c(CC3CCC(F)(F)CC3)cc(=O)oc2[nH]1` [Compound 223], 26.5 nM; to `CCCCc1cc(=O)oc2c1c(=O)[nH]c(=O)n2CF` [Compound 813], 256 nM.
